Experimental data as given in patent publication US10005767B2, “Compositions and methods for inhibition of the JAK pathway” (Rigel Pharmaceuticals, Inc., priority 2009, dated 2018).
Like-named read-outs stand apart in the source and are kept apart here.

Tested on: human primary T-cells, IL-2 stimulated proliferation (JAK-1 and JAK-3 dependent; reported as JAK3 activity)
Assay: Human primary T-cell proliferation stimulated by IL-2 (Example 3)
Assay type: cell-based
Conditions: tested under conditions described in Example 3 (IL-2 stimulated human primary T-cell proliferation), read-out: ability to inhibit JAK3 activity, IC50 range (Table V)
In short: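 Peripheral-blood human T-cells pre-activated via TCR/CD28, IL-2-starved overnight, then cultured 72 h at 37 °C with compound in Yssel's medium containing IL-2 (80 U/mL in cell suspension). Proliferation read as viable-cell ATP by CellTiter-Glo luminescence; reduction versus control taken as JAK pathway inhibition.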

With `COCCOc1cc(Nc2ncc(C)c(Nc3ccc4oc(=O)[nH]c4c3)n2)ccc1OC` [Compound I-292, N2-[4-methoxy-3-(2-methoxyethoxy)]phenyl-5-methyl-N4-(2-oxo-2,3-dihydro-1,3-benzoxazol-5-yl)-2,4-pyrimidinediamine] the IC50 was less than 500 nM.

`Cc1cnc(Nc2ccc(C(=O)NC3CCC3)nc2)nc1Nc1ccc2oc(=O)[nH]c2c1` [II-151, 5-[5-Methyl-4-(2-oxo-2,3-dihydro-benzooxazol-5-ylamino)-pyrimidin-2-ylamino]-pyridine-2-carboxylic acid cyclobutylamide] gave an IC50 (Homo sapiens, T-cell) of less than 500 nM.

Compound `COc1cc(C)cc(Nc2ncc(C)c(Nc3cc(C)c4oc(=O)[nH]c4c3)n2)c1` [Compound I-428, 5-(2-(3-methoxy-5-methylphenylamino)-5-methylpyrimidin-4-ylamino)-7-methylbenzo[d]oxazol-2(3H)-one] has an IC50 (Homo sapiens, T-cell) of less than 500 nM.

Work on `COCCOc1cc(Nc2ncc(C)c(Nc3ccc4oc(=O)[nH]c4c3)n2)cc(C(F)(F)F)c1` [Compound I-384, N2-[3-(2-methoxy)ethoxy-5-trifluoromethyl]phenyl-5-methyl-N4-(2-oxo-2,3-dihydro-1,3-benzoxazol-5-yl)-2,4-pyrimidinediamine] yielded an IC50 of less than 500 nM.

Work on `Cc1cnc(Nc2ccc(F)c(F)c2)nc1Nc1ccc2oc(=O)[nH]c2c1` [Compound I-398, N2-(3,4-difluoro)phenyl-5-methyl-N4-(2-oxo-2,3-dihydro-1,3-benzoxazol-5-yl)-2,4-pyrimidinediamine] yielded an IC50 of less than 500 nM.

`Cc1cnc(Nc2ccc(N3CCN(C)CC3)nc2)nc1Nc1ccc2[nH]c(=O)[nH]c2c1` [II-15, N4-(benzimidazolin-2-on-5-yl)-N2-[2-(4-methylpiperazin-1-yl)pyridin-5-yl]-5-methylpyrimidine-2,4-diamine] was tested, and the IC50 was less than 500 nM.

In the case of `Cc1cnc(Nc2ccc(C(F)(F)F)cc2)nc1Nc1ccc2oc(=O)[nH]c2c1` [Compound I-160, 5-[5-Methyl-2-(4-trifluoromethyl-phenylamino)-pyrimidin-4-ylamino]-3H-benzooxazol-2-one], the IC50 (Homo sapiens, T-cell) is reported as less than 500 nM.

Work on `Cc1ccc(Nc2ncc(F)c(Nc3ccc4oc(=O)[nH]c4c3)n2)cc1NS(C)(=O)=O` [Compound I-84, N2-((3-methylsulfonylamino-4-methyl)phenyl)-N4-(2-oxo-2,3-dihydrobenzo[d]oxazol-5-yl)-5-fluoropyrimidine-2,4-diamine] yielded an IC50 of less than 500 nM.

`Cc1cnc(Nc2cc(O)c3ccccc3c2)nc1Nc1ccc2oc(=O)[nH]c2c1` [IV-56, 5-[2-(4-Hydroxy-naphthalen-2-ylamino)-5-methyl-pyrimidin-4-ylamino]-3H-benzooxazol-2-one] gave an IC50 (Homo sapiens, T-cell) of 5000 to 10000 nM.

With `Cc1cnc(Nc2ccc(C(N)=O)c(N3CCCC3)c2)nc1Nc1ccc2oc(=O)[nH]c2c1` [Compound I-136, 4-[5-Methyl-4-(2-oxo-2,3-dihydro-benzooxazol-5-ylamino)-pyrimidin-2-ylamino]-2-pyrrolidin-1-yl-benzamide] the IC50 (Homo sapiens, T-cell) was less than 500 nM.

In the case of `Cc1cc(Nc2ncc(C)c(Nc3ccc4oc(=O)[nH]c4c3)n2)ccc1N1CCN2CCC1CC2` [Compound I-120, N4-(benzo[d]oxazol-2(3H)-on-5-yl)-N2-((4-(1,4-diazabicyclo[3.2.2]nonan-4-yl)-3-methyl)phenyl)-5-methylpyrimidine-2,4-diamine], the IC50 is reported as less than 500 nM.

In the case of `Cc1cnc(Nc2ccc(F)c(NS(C)(=O)=O)c2)nc1Nc1ccc2oc(=O)[nH]c2c1` [Compound I-87, N2-((4-fluoro-3-methylsulfonylamino)phenyl)-N4-(2-oxo-2,3-dihydrobenzo[d]oxazol-5-yl)-5-methylpyrimidine-2,4-diamine], the IC50 is reported as less than 500 nM.

`Cc1cnc(Nc2ccc3[nH]nc(C)c3c2)nc1Nc1ccc2oc(=O)[nH]c2c1` [IV-49, 5-methyl-N2-(3-methylindazol-5-yl)-N4-(2-oxo-2,3-dihydro-1,3-benzoxazol-5-yl)-2,4-pyrimidinediamine] showed an IC50 (Homo sapiens, T-cell) of less than 500 nM.

For `Cn1c(=O)n(C)c2cc(Nc3nc(Nc4cccc(S(C)(=O)=O)c4)ncc3F)ccc21` [Compound I-41, N4-(1,3-dimethylbenzimidazolin-2-on-5-yl)-N2-((3-methylsulfonyl)phenyl)-5-fluoropyrimidine-2,4-diamine], the IC50 was 500 to 5000 nM.

`COc1ccc(Nc2ncc(C)c(Nc3ccc4oc(=O)[nH]c4c3)n2)cc1C(=O)N1CCCC1` [Compound I-261, 5-(2-(4-methoxy-3-(pyrrolidine-1-carbonyl)phenylamino)-5-methylpyrimidin-4-ylamino)benzo[d]oxazol-2(3H)-one] was tested, and the IC50 (Homo sapiens, T-cell) was less than 500 nM.

With `Cc1cnc(Nc2ccc(N3CCN(C)CC3)c(C(N)=O)c2)nc1Nc1ccc2oc(=O)[nH]c2c1` [Compound I-316, N2-[3-aminocarbonyl-4-(4-methylpiperazino)]phenyl-5-methyl-N4-(2-oxo-2,3-dihydro-1,3-benzoxazol-5-yl)-2,4-pyrimidinediamine] the IC50 was less than 500 nM.

With `CN[C@@H]1CCCN(c2ccc(Nc3ncc(C)c(Nc4ccc5oc(=O)[nH]c5c4)n3)cn2)C1` [II-88, (R)-5-(5-methyl-2-(6-(3-(methylamino)piperidin-1-yl)pyridin-3-ylamino)pyrimidin-4-ylamino)benzo[d]oxazol-2(3H)-one] the IC50 (Homo sapiens, T-cell) was less than 500 nM.

With `COc1cc(Nc2ncc(C)c(Nc3cc(C)c4oc(=O)[nH]c4c3)n2)cc(C)c1OC` [Compound I-453, 5-(2-(3,4-dimethoxy-5-methylphenylamino)-5-methylpyrimidin-4-ylamino)-7-methylbenzo[d]oxazol-2(3H)-one] the IC50 (Homo sapiens, T-cell) was less than 500 nM.

With `CSc1ccc(Nc2ncc(C)c(Nc3ccc4oc(=O)[nH]c4c3)n2)cc1C(F)(F)F` [Compound I-155, 5-[5-Methyl-2-(4-methylsulfanyl-3-trifluoromethyl-phenylamino)-pyrimidin-4-ylamino]-3H-benzooxazol-2-one] the IC50 (Homo sapiens, T-cell) was less than 500 nM.

With `COc1c(C(C)C)cc(Nc2ncc(C)c(Nc3ccc4oc(=O)[nH]c4c3)n2)cc1C(C)C` [Compound I-371, N2-(3,5-diisopropyl-4-methoxy)phenyl-5-methyl-N4-(2-oxo-2,3-dihydro-1,3-benzoxazol-5-yl)-2,4-pyrimidinediamine] the IC50 was 500 to 5000 nM.

Work on `Cc1cnc(Nc2ccncc2F)nc1Nc1ccc2oc(=O)[nH]c2c1` [IV-63, N2-(3-fluoropyridin-4-yl)-5-methyl-N4-(2-oxo-2,3-dihydro-1,3-benzoxazol-5-yl)-2,4-pyrimidinediamine] yielded an IC50 of 5000 to 10000 nM.

For `COc1ccc(Nc2ncc(C)c(Nc3ccc4oc(=O)[nH]c4c3)n2)cc1C(=O)N(C)C` [Compound I-260, 2-methoxy-N,N-dimethyl-5-(5-methyl-4-(2-oxo-2,3-dihydrobenzo[d]oxazol-5-ylamino)pyrimidin-2-ylamino)benzamide], the IC50 (Homo sapiens, T-cell) was less than 500 nM.

`Cc1cnc(Nc2ccc3c(c2)CN(C)C3)nc1Nc1ccc2oc(=O)[nH]c2c1` [III-4, N4-(benzo[d]oxazol-2(3H)-on-5-yl)-N2-(2-methylisoindolin-5-yl)-5-methylpyrimidine-2,4-diamine] showed an IC50 (Homo sapiens, T-cell) of less than 500 nM.

Work on `COc1ccc(Nc2ncc(C)c(Nc3ccc4oc(=O)[nH]c4c3)n2)cn1` [II-123, N2-(2-methoxypyridin-5-yl)-5-methyl-N4-(2-oxo-2,3-dihydro-1,3-benzoxazol-5-yl)-2,4-pyrimidinediamine] yielded an IC50 (Homo sapiens, T-cell) of less than 500 nM.

Compound `Cc1ccc(Nc2ncc(C)c(Nc3ccc4oc(=O)[nH]c4c3)n2)nc1` [IV-52, 5-(5-methyl-2-(5-methylpyridin-2-ylamino)pyrimidin-4-ylamino)benzo[d]oxazol-2(3H)-one] has an IC50 (Homo sapiens, T-cell) of 500 to 5000 nM.

Compound `Cc1cnc(Nc2cc(Br)cc(C(F)(F)F)c2)nc1Nc1ccc2oc(=O)[nH]c2c1` [Compound I-189, 5-[2-(3-Bromo-5-trifluoromethyl-phenylamino)-5-methyl-pyrimidin-4-ylamino]-3H-benzooxazol-2-one] has an IC50 (Homo sapiens, T-cell) of less than 500 nM.

`Cc1cnc(Nc2ccc(N3CCNCC3)cc2)nc1Nc1ccc2oc(=O)[nH]c2c1` [Compound I-332, 5-methyl-N4-(2-oxo-2,3-dihydro-1,3-benzoxazol-5-yl)-N2-(4-piperazino)phenyl-2,4-pyrimidinediamine] gave an IC50 of less than 500 nM.

In the case of `Cc1ccc(Nc2ncc(C)c(Nc3ccc4oc(=O)[nH]c4c3)n2)cc1CF` [Compound I-439, 5-(2-(3-(fluoromethyl)-4-methylphenylamino)-5-methylpyrimidin-4-ylamino)benzo[d]oxazol-2(3H)-one], the IC50 (Homo sapiens, T-cell) is reported as less than 500 nM.

In the case of `Cc1cnc(Nc2cccc(NS(C)(=O)=O)c2)nc1Nc1ccc2[nH]c(=O)[nH]c2c1` [Compound I-54, N2-(3-(methylsulfonylamino)phenyl)-N4-(1H-benzo[d]imidazol-2(3H)-on-5-yl)-5-methylpyrimidine-2,4-diamine], the IC50 (Homo sapiens, T-cell) is reported as less than 500 nM.

`Cc1cnc(Nc2cc(C)c(C)c(C)c2)nc1Nc1cc(Cl)c2oc(=O)n(COP(=O)(OC(C)(C)C)OC(C)(C)C)c2c1` [Compound I-524, N4-{3-[bis(1,1-dimethylethoxy)]phosphinyloxymethyl-7-chloro-2-oxo-2,3-dihydro-1,3-benzoxazol-5-yl}-N2-(3,4,5-trimethyl)phenyl-5-methyl-2,4-pyrimidinediamine] was tested, and the IC50 was greater than 10000 nM.

`O=c1[nH]c2cc(Nc3nc(Nc4cccc(N5CCOCC5)c4)ncc3F)ccc2o1` [Compound I-47, N4-(benzo[d]oxazol-2(3H)-on-5-yl)-N2-((3-morpholinyl)phenyl)-5-fluoropyrimidine-2,4-diamine] was tested, and the IC50 was less than 500 nM.

Compound `[2H]C([2H])([2H])Oc1ccc(Nc2ncc(C)c(Nc3ccc4oc(=O)[nH]c4c3)n2)cc1C` [Compound I-264, 5-(2-(3-methyl-4-trideuteromethoxyphenylamino)-5-methylpyrimidin-4-ylamino)benzo[d]oxazol-2(3H)-one] has an IC50 (Homo sapiens, T-cell) of less than 500 nM.

`COC(=O)N1C2CCC1CC(c1ncc(Nc3ncc(C)c(Nc4ccc5oc(=O)[nH]c5c4)n3)cc1C)C2` (stereo not drawn) [II-68, methyl 3-(3-methyl-5-(5-methyl-4-(2-oxo-2,3-dihydrobenzo[d]oxazol-5-ylamino)pyrimidin-2-ylamino)pyridin-2-yl)-8-azabicyclo[3.2.1]octane-8-carboxylate] gave an IC50 (Homo sapiens, T-cell) of less than 500 nM.
